Measured values reported in patent US10351572B2, “Aryl hydrocarbon receptor antagonists and uses thereof” (Magenta Therapeutics Inc., priority 2017, dated 2019).
Several values for one entry are separate records, joined by “and”; a condition that tells them apart may be missing. Equal values may be shown once. Read-outs that look alike come from different tables or passages of the source.

What was measured:
[1] = molecular target: T1, aryl hydrocarbon receptor (Homo sapiens, UniProt P35869); assay: Aryl hydrocarbon receptor-driven luciferase reporter in transiently transfected HepG2 cells, Example 3; format: cell-based; settings: absence or presence of VAF347 (80 nM); six hours after plating
T1 construct: HepG2 cells transiently transfected with the pGudLuc6.1 plasmid were thawed and 25,000 cells were plated per well; endogenous in cells; host or cells: HepG2
T1 sequence (P35869 11-848): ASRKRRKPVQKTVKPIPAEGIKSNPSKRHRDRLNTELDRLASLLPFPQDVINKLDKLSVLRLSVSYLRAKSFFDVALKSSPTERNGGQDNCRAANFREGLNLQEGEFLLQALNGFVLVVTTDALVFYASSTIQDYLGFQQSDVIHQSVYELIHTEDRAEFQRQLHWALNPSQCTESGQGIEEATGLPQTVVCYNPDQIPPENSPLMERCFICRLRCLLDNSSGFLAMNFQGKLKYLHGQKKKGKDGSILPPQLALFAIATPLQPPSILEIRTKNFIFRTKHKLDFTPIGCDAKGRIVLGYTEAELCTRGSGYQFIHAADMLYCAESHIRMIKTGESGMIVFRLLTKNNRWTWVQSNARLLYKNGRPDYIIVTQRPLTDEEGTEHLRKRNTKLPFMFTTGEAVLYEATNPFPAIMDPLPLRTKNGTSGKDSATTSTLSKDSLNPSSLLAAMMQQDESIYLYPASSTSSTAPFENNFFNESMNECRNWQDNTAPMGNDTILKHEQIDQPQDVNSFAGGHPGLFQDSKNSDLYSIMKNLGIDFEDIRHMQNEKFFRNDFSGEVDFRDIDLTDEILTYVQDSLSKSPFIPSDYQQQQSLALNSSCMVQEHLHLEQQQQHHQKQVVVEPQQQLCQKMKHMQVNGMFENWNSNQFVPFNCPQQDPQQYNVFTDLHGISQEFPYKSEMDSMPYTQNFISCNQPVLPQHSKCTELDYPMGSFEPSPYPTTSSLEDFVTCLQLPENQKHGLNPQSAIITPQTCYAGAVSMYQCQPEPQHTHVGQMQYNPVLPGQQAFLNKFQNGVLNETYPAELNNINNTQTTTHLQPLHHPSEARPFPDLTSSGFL
Description: To determine the ability of compounds (5) and (16) to inhibit the activity of the aryl hydrocarbon receptor and to induce the proliferation of hematopoietic stem cells, a series of HSC expansion experiments were conducted. In the first experiment, compounds (5) and (16) were assessed for their capacity to attenuate aryl hydrocarbon receptor signaling. To this end, HepG2 hepatocytes were transiently transfected with a luciferase reporter construct under the control of a promoter responsive to aryl hydrocarbon receptor signal transduction. The cells were plated at a density of 25,000 cells per well in a microtiter plate. The HepG2 cells were immediately treated with compound (5) or (16) in the absence (FIG. 1) or presence (FIG. 2) of the aryl hydrocarbon receptor agonist, VAF347 (80 nM). Luciferase activity was subsequently analyzed six hours after plating.

[2] = test system: mononuclear peripheral blood cells enriched in CD34+ cells; assay: Proliferation of hematopoietic stem cells, percentage of CD34+ cells after seven days, Example 3; format: cell-based; settings: for potency of hematopoietic stem cell expansion compared with SR1: compared with potency reported for SR1; for hematopoietic stem cell growth (percentage of CD34+ cells): seven days following plating
Description: To assess the ability of compounds (5) and (16) to induce the proliferation of hematopoietic stem cells, a population of mononuclear peripheral blood cells enriched in CD34+ cells were plated at a density of 2,350 cells per well (50 μL) in a microtiter plate in the presence of each compound. The percentage of CD34+ hematopoietic stem cells was assessed seven days following the initial plating. […] The compounds of formula (I) and (II) described herein can thus be used to expand hematopoietic stem cells ex vivo in order to obtain sufficient quantities of such cells for in vivo applications.

[3] = test system: mobilized peripheral blood CD34+ cells; assay: CD34+ hematopoietic stem/progenitor cell expansion (CD34+ frequency and number), Example 9; format: cell-based; settings: dose response beginning at 10 pM, day 7, flow cytometry
Description: To determine the activity of a scale-up batch of Compound (24), individual enantiomers, and two derivatives Compound (27) and Compound (28) were evaluated for i) the ability to expand CD34+ hematopoietic stem/progenitor cells and ii) AHR antagonist activity. The compounds were compared to control AHR antagonist SR1, an additional control AHR antagonist, and stored sample of Compound (24) CD34+ Frequency and Number
Methods—mobilized peripheral blood CD34+ cells were cultured in the presence of compound, in dose response beginning at 10 pM. CD34+ cell frequency and number was assessed at day 7 by flow cytometry. All synthesized compounds show equivalent expansion capabilities if not greater than SR1.

[4] = molecular target: T2, AHR (Homo sapiens, UniProt P35869); assay: AHR antagonist assay, HepG2 cells transiently transfected with pGudLuc6.1 luciferase plasmid, Example 9; format: cell-based; settings: luciferase activity 24 hours post-culture
T2 construct: HepG2 cells transiently transfected with the pGudLuc6.1 plasmid were thawed and 25,000 cells were plated per well; endogenous in cells; host or cells: HepG2
T2 sequence (P35869 11-848): T1 sequence (P35869 11-848)
Description: Methods—HepG2 cells transiently transfected with the pGudLuc6.1 plasmid were thawed and 25,000 cells were plated per well and immediately treated the AHR agonist VAF347 (fixed at 40 nM) and/or the indicated AHR antagonists. Luciferase activity was measured 24 hours post-culture, corresponding to endogenous AHR antagonist activity (without VAF347, FIG. 14) or in the presence of VAF347 (FIG. 15). All synthesized compounds show equivalent AHR antagonist activity if not greater than SR1.

[5] = test system: NSG mice; assay: Transplantation into NSG mice of human hematopoietic stem cells expanded ex vivo with AHR antagonist; blood chimerism and brain microglia engraftment, Example 5; format: in vivo; settings: NSG mice transplanted with cord blood CD34+ cells expanded 10 days with 500 nM AHR antagonist
Description: To investigate the ability of hematopoietic stem cells to differentiate into microglial cells and subsequently engraft in central nervous system tissue, such as the brain of a hematopoietic stem cell transplant recipient, a series of experiments were conducted in which human hematopoietic stem cells were first expanded ex vivo in the presence of an aryl hydrocarbon receptor antagonist (compound (16) or compound (24)) and were subsequently transplanted into NSG mice, in accordance with the scheme shown in FIG. 4. The frequency of human CD45+ cells in the peripheral blood of the mice was then determined, as well as the profile of microglial cells in the brain tissue using flow cytometry and immunohistochemistry techniques. […]
At the time of thaw, an equal number of cells to the starting cell cultures were injected into NSG mice, sublethally irradiated (200 cGy) 24 hours prior to injection. […] Peripheral blood was harvested by retro-orbital bleeding at approximately weeks 4 and 8 or by cardiac puncture at week 12 and chimerism was assessed by flow cytometry using antibodies against hCD45, mCD45, hCD33, hCD19, hCD3 and a viability dye. […]
Embedded brains were sectioned at approximately 5 microns and stained with Ku80 (brown) and Iba-1 (red) primary antibodies). Mouse brains were analyzed from each transplanted mouse and five levels were analyzed each. […]

[6] = VAF347 fixed at 40 nM, read-out: AHR Antagonist Activity in the Presence of VAF347 EC50
[7] = without VAF347, read-out: Endogenous AHR Antagonist Activity EC50

Structure (SMILES)	EC50 [3] [nM]	EC50 [4, 6]	EC50 [4, 7] [nM]	EC50 ([3]; 168 h) [nM]	suppression of aryl hydrocarbon receptor activity (luciferase) [1]	potency of hematopoietic stem cell expansion compared with SR1 [2]	hematopoietic stem cell growth (percentage of CD34+ cells) [2]	frequency of hCD45+ cells in peripheral blood [5]	engraftment of hCD45+CD11b+ microglial cells in the brain ([5]; brains at 3 months)
CCC(C)c1cnc2c(NCCc3c[nH]c4ccccc34)cc(-c3cncc(F)c3)cn12 (centres unmarked) [Compound (5)]	–	–	–	–	capable of suppressing aryl hydrocarbon receptor activity even in the presence of the activator VAF347	potency greater than that reported for StemRegeninl (SR1)	capable of potentiating hematopoietic stem cell growth in a dose-dependent manner	–	–
COCCCC(C)c1cnc2c(NCCc3c[nH]c4ccccc34)nc(-c3cncc(F)c3)cn12 (centres unmarked) [Compound (27), 6-(5-fluoropyridin-3-yl)-N-[2-(1H-indol-3-yl)ethyl]-3-(4-methoxy-1-methylbutyl)imidazo[1,2-a]pyrazin-8-amine]	–	9 nM	2	8	–	–	–	–	–
CC(C)n1cnc2c(NCCc3ccc(O)cc3)nc(-c3csc4ccccc34)nc21 [SR1, reference compound]	112	193 nM	33	–	–	–	–	–	–
COCCC(C)c1cnc2c(NCCc3c[nH]c4ccccc34)nc(-c3cncc(F)c3)cn12 (single isomer, unassigned) [Compound (24) - Enantiomer Peak 2, 6-(5-fluoropyridin-3-yl)-N-[2-(1H-indol-3-yl)ethyl]-3-(3-methoxy-1-methylpropyl)imidazo[1,2-a]pyrazin-8-amine]	4	6 nM	0.4	–	–	–	–	–	–
CCC(C)c1cnc2c(NCCc3c[nH]c4ccccc34)nc(-c3cncc(F)c3)cn12 (centres unmarked) [Compound (16)]	–	–	–	–	capable of suppressing aryl hydrocarbon receptor activity even in the presence of the activator VAF347	potency greater than that reported for StemRegeninl (SR1)	capable of potentiating hematopoietic stem cell growth in a dose-dependent manner	increased frequency of hCD45+ cells in peripheral blood	increased engraftment of hCD45+CD11b+ microglial cells in the brain

Now from value to compound, other results behind:

EC50 [3] [nM]	EC50 [4, 6]	EC50 [4, 7] [nM]	EC50 ([3]; 168 h) [nM]	Structure (SMILES)	suppression of aryl hydrocarbon receptor activity (luciferase) [1]	potency of hematopoietic stem cell expansion compared with SR1 [2]	hematopoietic stem cell growth (percentage of CD34+ cells) [2]	frequency of hCD45+ cells in peripheral blood [5]	engraftment of hCD45+CD11b+ microglial cells in the brain ([5]; brains at 3 months)
11	12 nM	1	–	COCCC(C)c1cnc2c(NCCc3c[nH]c4ccccc34)nc(-c3cncc(F)c3)cn12 (single isomer, unassigned) [Compound (24) - Enantiomer Peak 1, 6-(5-fluoropyridin-3-yl)-N-[2-(1H-indol-3-yl)ethyl]-3-(3-methoxy-1-methylpropyl)imidazo[1,2-a]pyrazin-8-amine]	–	–	–	–	–
–	13 nM and 11 nM	1	7	COCCC(C)c1cnc2c(NCCc3c[nH]c4ccccc34)nc(-c3cncc(F)c3)cn12 (racemic) [Compound (24), 6-(5-fluoropyridin-3-yl)-N-[2-(1H-indol-3-yl)ethyl]-3-(3-methoxy-1-methylpropyl)imidazo[1,2-a]pyrazin-8-amine]	–	–	–	–	–
–	30 nM	2	10	CCOCCC(C)c1cnc2c(NCCc3c[nH]c4ccccc34)nc(-c3cncc(F)c3)cn12 (centres unmarked) [Compound (28), 3-(3-ethoxy-1-methylpropyl)-6-(5-fluoropyridin-3-yl)-N-[2-(1H-indol-3-yl)ethyl]imidazo[1,2-a]pyrazin-8-amine]	–	–	–	–	–
